{
  "source": "paper PMC5845537",
  "about": "(Frontiers in Pharmacology, 2018)",
  "key": {"[1]": {"system": "Sprague-Dawley rats", "test": "Rat object recognition (OR) task after subchronic PCP", "assay_type": "in vivo", "details": "p < 0.05", "procedure": "(§1) Subchronic PCP treatment: The subPCP administration regimen used in rats was conducted as described in ([Goetghebeur and Dias, 2009]), which is a reliable method for inducing deficits in our hands. Rats in the subPCP experiments received injections of 5 mg/mL PCP or vehicle (saline) s.c. at a 1 mL/kg injection volume twice per day for 7 days. […] The mouse subPCP regimen was conducted as described in [Pedersen et al. (2014)]. Briefly, mice received vehicle or PCP (1.3 mg/mL concentration, 10 mL/kg injection volume) s.c once per day for 14 days followed by a 7-day washout prior to experimentation.\nThe behavioral procedures for the rat OR task were conducted as described in [du Jardin et al. (2014)]. […] OR task sessions were recorded by a digital camera situated above the open field. Exploration time for each object was recorded with a stopwatch from the videos. […]\n(§2) The primary dependent measure for the OR and object placement tasks was a novel object or novel placement preference score, which were calculated from raw object investigation times using the following equation: Preference Score = ITN/(ITN + ITF)^∗100, where ITN represents the investigation time for the novel object or placement, and ITF represents the investigation for the familiar object or placement. Total exploration times from the information and test trials were analyzed for OP and OR experiments. […]"}, "[2]": {"system": "C57BL/6NCrlBr mice", "test": "Mouse object recognition (OR) task after subchronic PCP", "assay_type": "in vivo", "procedure": "as §1\nObject placement and OR tasks in mice were executed in Perspex boxes measuring 40 × 40 cm with dark gray walls and a white floor. The tests were conducted during the light phase, yet in a subdued light (≈20 lux) and with the radio turned on in the background. Each trial was recorder by a camera mounted above the test arenas and later scored manually.\nObjects in the mouse OP task consisted of small stork sculptures made of plaster, which were 11.5 cm in height, with a roughly rectangle-shaped base 7.5 cm in length and 4.8 cm in width. For the mouse OR task, objects consisted of (1) small cylindrical pepper mills (purchased empty, having never contained spice) made of clear plastic (10.5 cm in height, 4.5 cm diameter), and (2) small salt shakers made of light blue glass (again, purchased empty; 11.5 cm in height, 4.5 cm diameter). […]\nas §2, with “experiments. Preference score and total exploration time data was analyzed for treatment group differences using a one-way between-subjects ANOVA.” for “experiments.”"}, "[3]": {"system": "GABAA receptor", "test": "Ex vivo autoradiography, GABAA receptor competition binding ([3H]muscimol vs GABA), medial prefrontal cortex", "set-up": "species or system rat", "excerpt": "Rats used in ex vivo autoradiography (EVA) experiments were randomly assigned to one of four experimental groups characterized by either subchronic saline or PCP (as described above) along with either vehicle or vortioxetine-infused food (1.8 g vortioxetine/kg food weight, as described in the attentional set shifting task). On day 8 of PCP withdrawal, rats were anesthetized using CO2 and killed by decapitation. Brains were quickly and gently removed from the skull, flash frozen on powdered dry ice, and stored at -20°C until sectioning. […] After the tissue mounted on the microscope slides had dried thoroughly (in order to reduce damage from freezing), slides were packed into slide boxes with desiccator pellets, and stored at -20°C for use in EVA saturation binding and competition experiments.\nEach of the EVA procedures used in this study are variations on a similar theme. On the day of an experiment, slide-boxes were defrosted under a constant stream of air at room temperature until the boxes were dry and equilibrated with the environment in terms of temperature. […] Prior to any binding experiments, slides were preincubated in the appropriate preincubation buffer and dried at room temperature. Subsequently, tissue was incubated in an assay buffer containing a radioligand appropriate for the receptor of interest, then rinsed in assay buffer, and dried overnight in a vacuum desiccator. […] Finally, slides were opposed to a tritium-sensitive phosphor screen (Fuji imaging plate, GE Healthcare, Pittsburgh, PA, United States) for 5 days before being read in a phosphorimager (Typhoon FLA7000, GE Healthcare).\nKi values for competition experiments were calculated separately for each animal, then aggregated to estimate sample averages and error. Ki values were calculated via non-linear regression, assuming a one-site competition binding, using GraphPad Prism version 6 for Windows (GraphPad software, La Jolla, CA, United States). pKi values were then calculated via the following formula: pKi = -Log10(Ki)."}},
  "data": [
    {"smiles": "Cl.c1ccc(C2(N3CCCCC3)CCCCC2)cc1", "note": "[PCP, 1-(1-phenylcyclohexyl)-piperidine hydrochloride]", "values": [
      {"measurement": "OR performance (novel object preference score)", "setting": "[1]; subPCP alone vs vehicle-treated controls", "result": "significant impairments"},
      {"measurement": "novel object preference score", "setting": "[2]; subPCP/veh vs control mice, PCP 13 mg/kg s.c. once per day 14 days, 7-day washout, p < 0.001", "result": "significantly lower novel object preference scores"},
      {"measurement": "effect of treatment on GABA pKi at the GABAA receptor", "setting": "[3]; subPCP treatment on its own", "result": "did not significantly alter"}
    ]},
    {"smiles": "Cc1ccc(Sc2ccccc2N2CCNCC2)c(C)c1", "note": "[vortioxetine]", "values": [
      {"measurement": "attenuation of subPCP-induced OR impairment (preference score)", "setting": "[1]; subPCP-treated rats, acute 10 mg/kg 1 h s.c.", "result": "significantly attenuated"},
      {"measurement": "novel object preference score, vehicle/vortioxetine vs vehicle/vehicle", "setting": "[2]; mice without PCP, 10 mg/kg s.c. bolus then 0.6 g/kg chow", "result": "no statistically significant difference"},
      {"measurement": "novel object preference score vs subPCP/vehicle", "setting": "[2]; subPCP/vortioxetine mice, 10 mg/kg s.c. bolus then 0.6 g/kg chow, p < 0.01", "result": "significantly higher novel object preference scores"},
      {"measurement": "GABA pKi at the GABAA receptor, PCP/vortioxetine vs vehicle/vortioxetine group", "setting": "[3]; subchronic vortioxetine combined with subPCP, p < 0.01", "result": "significantly lower"},
      {"measurement": "increase in the affinity of GABA for the GABAA receptor", "setting": "[3]; vehicle/vortioxetine vs saline/vehicle group, subchronic 1.8 g vortioxetine/kg food, p < 0.01", "result": "approximately 2.5 fold"}
    ]}
  ]
}
